In ChEMBL document CHEMBL1127830, “A new photoaffinity analog of cGMP: potent inhibitor of cyclic nucleotide phosphodiesterase” (J Med Chem, 1994) one finds IC50 data, which are given here for one compound.

By IC50 is commonly meant the concentration that gives 50% inhibition. A high value points to weaker potency in that assay.

Assay [1] is described as follows: Inhibition of rat bladder dome cAMP phosphodiesterase.
Assay [2] can be described thus: Inhibition of human platelet cAMP phosphodiesterase.
The nature of assay [3]: Inhibition of rat bladder dome cGMP phosphodiesterase.

Take `NC1=NC(=O)C2N=CN([C@@H]3O[C@@H]4COP(=O)(O)O[C@H]4[C@H]3OC(=O)c3ccc(C(=O)c4ccccc4)cc3)C2=N1` (stereo partly drawn): the IC50 in assay [1] stood at 15.8 µM; in assay [2] it was 3.4 µM; in assay [3], 0.3 µM.
